Results taken from publication PMC10783034, “Pharmacokinetic and pharmacodynamic evaluation of the atypical tetracyclines chelocardin and amidochelocardin in murine infection models” (Microbiology Spectrum, 2023).
Values after ≈ are worked out from the molar mass of the structure shown. Values joined by “and” are separate entries in the source; they are usually repeats but may differ in a detail not shown here. Identical values can stand only once.

Tests used:
[1] = system: K. pneumoniae ATCC 43816; parameters: method as in PMID 32962088; settings: cited from earlier work
[2] = system: K. pneumoniae strains; parameters: method as in PMID 32962088; settings: selection of different K. pneumoniae strains; cited from earlier work
[3] = system: A. baumannii DSM-30008; assay: MIC determination; type: cell-based; settings: MHB medium
Procedure: (§1) The assay was conducted as described previously ([54]) with the following modifications. The MIC was tested against the K. pneumoniae strain ATCC 43816 in an MHB (not cation-adjusted) medium. CHD and CDCHD were tested in concentrations ranging from 0.078 to 10 µg/mL. Moreover, the MIC was determined for the following strains: K. pneumoniae DSM-30104, E. faecium DSM-20477, S. aureus DSM-346, P. aeruginosa DSM-11128, A. baumannii DSM-30008, E. aerogenes DSM-30053, E. coli ATCC 25922, and E. coli C175-94. All strains were grown in MHB medium, except for E. faecium, which was grown in TSB. CHD, epi-CDH, and CDCHD were tested in concentrations ranging from 0.125 to 64 µg/mL as described previously ([19]).

[4] = system: P. aeruginosa DSM-11128; assay: MIC determination; type: cell-based; settings: MHB medium
Procedure: as §1

[5] = system: E. aerogenes DSM-30053; assay: MIC determination; type: cell-based; settings: MHB medium
Procedure: as §1

[6] = system: E. coli C175-94; assay: MIC determination; type: cell-based; settings: MHB medium
Procedure: as §1

[7] = system: E. faecium DSM-20477; assay: MIC determination; type: cell-based; settings: TSB medium
Procedure: as §1

[8] = system: E. coli ATCC 25922; assay: MIC determination; type: cell-based; settings: MHB medium
Procedure: as §1

[9] = system: K. pneumoniae DSM-30104; assay: MIC determination; type: cell-based; settings: MHB medium
Procedure: as §1

[10] = system: S. aureus DSM-346; assay: MIC determination; type: cell-based; settings: MHB medium
Procedure: as §1

[11] = Pharmacokinetic studies in uninfected CD-1 mice (plasma and urine levels); type: in vivo; settings: for epimerization in plasma and urine in vivo / urine concentrations at time points > 24 hours / plasma levels at 30 mg/kg IV compared with 15 mg/kg IV / urine levels at 30 mg/kg IV compared with 15 mg/kg IV: mice; for F (bioavailability) / AUC0-t / C0 / Cl/F_obs / MRT / Vz/F_obs / t1/2 (plasma half-life) / Tmax / Cmax: CD-1 mice
Procedure: CHD and CDCHD were administered in single PK studies at the doses of 15 mg/kg and 30 mg/kg IV, at 15 mg/kg SC, and 15 mg/kg PO. Up to 25 µL of blood was collected from the lateral tail vein (n = 3 per time point) and time points t = 0.5, 1, 2, 4, and 8 hours. For 15 mg/kg IV- and PO-administered compounds, blood was also collected at time points t = 24 and 48 hours. For IV- and SC-administered compounds, blood was also collected at t = 0.25 hours. At t = 24 hours (15 mg/kg SC, 30 mg/kg IV) or 72 hours (15 mg/kg IV and PO), animals were euthanized to collect blood. At every blood collection, time point spontaneous urine was collected as well. Whole blood was collected into Eppendorf tubes coated with 0.5 M EDTA and immediately spun down at 15,870× g for 10 min at 4°C. Then, plasma was transferred into a new Eppendorf tube and stored at −80°C until analysis.
First, a calibration curve was prepared by spiking different concentrations of CHD and CDCHD into mouse plasma or mouse urine (matrix for mouse PK or PD samples) from CD-1 mice. Caffeine was used as an internal standard. In addition, quality control samples (QCs) were prepared for CHD and CDCHD in plasma and urine. The following extraction procedures were used: 7.5 µL of a plasma or urine sample (calibration samples, QCs, PK or PD samples) was extracted with 37.5 µL of a mixture of methanol/acetonitrile (2:1) containing 12.5 ng/mL of glipizide as an internal standard for 5 min at 2,000 rpm on an Eppendorf MixMate® vortex mixer. Then samples were spun down at 15,870× g for 10 min. Supernatants were transferred to standard HPLC glass vials.
Samples were analyzed using an Agilent 1290 HPLC system coupled to an AB Sciex QTrap 6500 mass spectrometer. LC conditions were as follows: column: Agilent Zorbax Eclipse Plus C18, 50 × 2.1 mm, 1.8 µm; temperature: 30°C; injection volume: 5 µL per sample; flow rate: 700 µL/min. Samples were run under the following conditions. Solvents for acidic conditions: A: 100% water +0.1% formic acid; solvent B: 100% acetonitrile +0.1% formic acid. The gradient for CDCHD was as follows: 99% A at 0 min, 99% A until 1 min, 99%–50% A from 1 to 2.4 min, 50%–35% A from 2.4 to 2.7 min, 35–0% A from 2.7 until 4.5 min, 0% A until 6 min, 0-99% from 6 to 6.2 min, 99% A until 8.0 min. The gradient for CHD was as follows: 99%–90% A from 0 to 1 min, 90%–55% A from 1 to 2.3 min, 50%–40% A from 2.3 to 2.5 min, 40%–0% A from 2.5 to 4.5 min, 0% A until 6 min, 0%–99% A from 6 to 6.2 min, 99% A until 8.0 min. Mass transitions are depicted in Table S3. Peaks of PK and PD samples were quantified using the calibration curve. The accuracy of the calibration curve was determined using QCs independently prepared on different days. PK parameters were determined using a non-compartmental analysis with PKSolver ([55]).

[12] = plasma, 15 mg/kg IV, for CHD active CHD only

Row | SMILES | minimal bactericidal concentration (MBC) [1] [µg/mL] | MIC [2] | MIC [3] [µg/mL] | MIC [4] [µg/mL] | MIC [5] [µg/mL] | MIC [6] [µg/mL] | MIC [7] [µg/mL] | MIC [8] | MIC [9] [µg/mL] | MIC [10] [µg/mL] | epimerization in plasma and urine in vivo ([11]; 15 mg/kg IV) | urine concentrations at time points > 24 hours ([11]; 15 mg/kg IV) | F (bioavailability) ([11]; 15 mg/kg PO, 15 mg/kg) | F (bioavailability) ([11]; 15 mg/kg SC, 15 mg/kg) | AUC0-t ([11]; plasma, 15 mg/kg IV) | C0 ([11]; plasma, 15 mg/kg IV) | Cl/F_obs ([11]; plasma, 15 mg/kg IV) [mL/min/kg] | MRT ([11]; plasma, 15 mg/kg IV) [h] | Vz/F_obs ([11]; plasma, 15 mg/kg IV) [L/kg] | C0 [11, 12] | other results
1 | Cc1ccc2c(C)c3c(c(O)c2c1O)C(=O)C1(O)C(=O)C(C(N)=O)=C(O)C(N)C1C3 (stereo not shown) [CDCHD, 2-carboxamido-2-deacetyl-chelocardin] | 8 (≈ 19.4 µM) | ~ 4 µg/mL | 8 (≈ 19.4 µM) | 16 (≈ 38.8 µM) | 8 (≈ 19.4 µM) | 2 to 4 | 2 (≈ 4.85 µM) | 2 µg/ml and ~ 2 µg/ml | 1 (≈ 2.42 µM) | 2 (≈ 4.85 µM) | This was not the case for CDCHD | found at high concentrations | 6% and 5.9% | 24% and 23.5% | 13,229.0 ± 1,147.2 ng/mL*h | around 1.3 µg/mL | 16.0 ± 1.4 | 33.4 ± 8.0 | 33.4 ± 6.1 | 1,336.4 ± 523.5 ng/mL | plasma concentrations of CDCHD relative to the active CHD ([11]; 15 mg/kg IV, time points > 24 hours, higher than active CHD): 10 fold; t1/2 (plasma half-life) [11, 12]: 24.3 ± 5.2 h; AUC0-t ([11]; plasma, 15 mg/kg PO): 780.9 ± 187.8 ng·h/mL; Cl/F_obs ([11]; plasma, 15 mg/kg PO): 294.3 ± 99.2 mL/min/kg; MRT ([11]; plasma, 15 mg/kg PO): 27.9 ± 7.1 h; Tmax ([11]; plasma, 15 mg/kg PO): 7.3 ± 1.6 h; Vz/F_obs ([11]; plasma, 15 mg/kg PO): 394.5 ± 122.6 L/kg; AUC0-t ([11]; plasma, 15 mg/kg SC): 3,109.3 ± 592.0 ng/mL*h; Cl/F_obs ([11]; plasma, 15 mg/kg SC): 34.5 mL/min/kg; MRT ([11]; plasma, 15 mg/kg SC): 57.3 h; Vz/F_obs ([11]; plasma, 15 mg/kg SC): 119.2 L/kg; Cmax ([11]; plasma, 15 mg/kg SC, 15 mg/kg): 171 ng/mL and 171.7 ± 17.7 ng/mL; plasma levels at 30 mg/kg IV compared with 15 mg/kg IV [11]: increased plasma levels (by a factor of more than two); urine levels at 30 mg/kg IV compared with 15 mg/kg IV [11]: in a similar range
2 | CC(=O)C1=C(O)[C@H](N)[C@@H]2Cc3c(c(O)c4c(O)c(C)ccc4c3C)C(=O)[C@]2(O)C1=O [CHD, chelocardin] | 16 (≈ 38.9 µM) | ~ 4 µg/mL | 16 (≈ 38.9 µM) | > 64 | 32 (≈ 77.8 µM) | 2 (≈ 4.86 µM) | 4 (≈ 9.72 µM) | 2 µg/ml and ~ 2 µg/ml | 2 to 4 | 4 (≈ 9.72 µM) | epimerization was also observed for CHD in plasma and to a lower extent in urine | already declined | 24% and 24.2% | 90% and 90.2% | 31,550.8 ± 2,722.6 ng/mL*h | more than 4 µg/mL | 7.9 ± 0.6 | 8.5 ± 0.2 | 5.6 ± 0.5 | 4,234.3 ± 1,737.1 ng/mL | Cmax of CHD relative to CDCHD ([11]; 15 mg/kg PO, higher than CDCHD): more than 15 times; plasma levels of CHD relative to CDCHD ([11]; 15 mg/kg SC, higher than CDCHD): around 10 fold; t1/2 (plasma half-life) [11, 12]: 8.2 ± 0.3 h; AUC0-t ([11]; plasma, 15 mg/kg PO): 7,636.3 ± 840.7 ng/mL*h; Cl/F_obs ([11]; plasma, 15 mg/kg PO): 31.0 ± 4.3 mL/min/kg; Cmax ([11]; plasma, 15 mg/kg PO): 460.5 ± 58.6 ng/mL; MRT ([11]; plasma, 15 mg/kg PO): 19.1 ± 4.1 h; Tmax ([11]; plasma, 15 mg/kg PO): 3.3 ± 1.2 h; Vz/F_obs ([11]; plasma, 15 mg/kg PO): 55.5 ± 14.5 L/kg; AUC0-t ([11]; plasma, 15 mg/kg SC): 28,457.0 ± 4,506.2 ng/mL*h; Cl/F_obs ([11]; plasma, 15 mg/kg SC): 8.1 ± 1.1 mL/min/kg; Cmax ([11]; plasma, 15 mg/kg SC): 2,109.3 ± 601.9 ng/mL; MRT ([11]; plasma, 15 mg/kg SC): 9.7 ± 1.8 h; Tmax ([11]; plasma, 15 mg/kg SC): 4.0 ± 0.0 h; Vz/F_obs ([11]; plasma, 15 mg/kg SC): 4.8 ± 1.5 L/kg; Cmax ([11]; plasma, 15 mg/kg SC (text)): around 2.1 µg/mL; plasma levels at 30 mg/kg IV compared with 15 mg/kg IV [11]: in a similar range as for the 15 mg/kg IV dose; urine levels at 30 mg/kg IV compared with 15 mg/kg IV [11]: increased urine levels; AUC of CHD relative to CDCHD ([11]; plasma, higher than CDCHD, stated in the 15 mg/kg SC paragraph): 3 times
